A short description of assay [1]: Treatment of a person suffering from autoimmune-mediated limbic encephalitis (single-patient case, anti-NMDAR encephalitis).
For assay [2] the following is noted: multiple sclerosis patients; cited from earlier work.

For `NC(=O)N1c2ccccc2C=Cc2ccccc21` [carbamazepine], the “response of generalized tonic-clonic repetitive seizures to anticonvulsants” value (“response” for short) in assay [1] (before cladribine) was “did not respond”.
Turning to `Nc1nc(Cl)nc2c1ncn2[C@H]1C[C@H](O)[C@@H](CO)O1` [cladribine, 2-chloro-2′-deoxyadenosine], in assay [2], the “time at which therapeutic effect on MS is evident” value is “three months after treatment”. Moreover, the “period of beneficial effects on the disease without need for frequent retreatment” value in assay [1] (after a relatively short period of treatment) was “over 10 months to two years”. Further, in assay [1] (after recovery following cladribine, able to perform all usual activities), the “disability reported by patient” value is reported as “no significant disability”. The recurrence of disease entry in assay [1] (follow up of 2 years, 5 more maintenance courses (20 mg over 2 consecutive days) with 2 months intervals) is listed as “did not show any recurrence of disease”. Also, the neurological condition entry in assay [1] (over subsequent 4 weeks after the first 3 weeks following cladribine) was “returned to normal neurological condition”. In addition, the “onset of effect on severe symptoms” value in assay [1] (patient with refractory autoimmune encephalitis) is on record as “rapid effect”. Also, the neurological sequel result in assay [1] (remaining after recovery following cladribine) was “parasomnia and complete loss of memory covering the entire hospitalization period”.
As to `O=C1CN=C(c2ccccc2Cl)c2cc([N+](=O)[O-])ccc2N1` [clonazepam], in assay [1] (before cladribine), the “response” value is on record as “did not respond”.
For `O=C(CCCN1CCC(O)(c2ccc(Cl)cc2)CC1)c1ccc(F)cc1` [haloperidol], the “psychiatric condition under standard antipsychotic treatment” value in assay [1] (during entire stay in the psychiatric ward, before cladribine) is on record as “without any improvement”.
As to `O=C1NC(=O)C(c2ccccc2)(c2ccccc2)N1` [phenytoin], the “response” value in assay [1] (before cladribine) is given as “did not respond”.
In the case of `CCCC(CCC)C(=O)[O-].[Na+]` [sodium valproate], the “response” value in assay [1] (before cladribine) is “did not respond”.

The values are drawn from patent US20240041911A1, “USE OF CLADRIBINE FOR TREATING IMMUNE BRAIN DISEASE” (CHORD THERAPEUTICS SA, priority 2020, published 2024).
